Data: US20180303807A1, “ANDROGEN RECEPTOR LIGANDS” (DUKE UNIVERSITY, priority 2015, published 2018)

Molecular target: T1, AR (Homo sapiens, UniProt P10275, T878A)
T1 construct: endogenous in cells; host or cells: LNCaP cells
T1 sequence (P10275 1-920 T878A): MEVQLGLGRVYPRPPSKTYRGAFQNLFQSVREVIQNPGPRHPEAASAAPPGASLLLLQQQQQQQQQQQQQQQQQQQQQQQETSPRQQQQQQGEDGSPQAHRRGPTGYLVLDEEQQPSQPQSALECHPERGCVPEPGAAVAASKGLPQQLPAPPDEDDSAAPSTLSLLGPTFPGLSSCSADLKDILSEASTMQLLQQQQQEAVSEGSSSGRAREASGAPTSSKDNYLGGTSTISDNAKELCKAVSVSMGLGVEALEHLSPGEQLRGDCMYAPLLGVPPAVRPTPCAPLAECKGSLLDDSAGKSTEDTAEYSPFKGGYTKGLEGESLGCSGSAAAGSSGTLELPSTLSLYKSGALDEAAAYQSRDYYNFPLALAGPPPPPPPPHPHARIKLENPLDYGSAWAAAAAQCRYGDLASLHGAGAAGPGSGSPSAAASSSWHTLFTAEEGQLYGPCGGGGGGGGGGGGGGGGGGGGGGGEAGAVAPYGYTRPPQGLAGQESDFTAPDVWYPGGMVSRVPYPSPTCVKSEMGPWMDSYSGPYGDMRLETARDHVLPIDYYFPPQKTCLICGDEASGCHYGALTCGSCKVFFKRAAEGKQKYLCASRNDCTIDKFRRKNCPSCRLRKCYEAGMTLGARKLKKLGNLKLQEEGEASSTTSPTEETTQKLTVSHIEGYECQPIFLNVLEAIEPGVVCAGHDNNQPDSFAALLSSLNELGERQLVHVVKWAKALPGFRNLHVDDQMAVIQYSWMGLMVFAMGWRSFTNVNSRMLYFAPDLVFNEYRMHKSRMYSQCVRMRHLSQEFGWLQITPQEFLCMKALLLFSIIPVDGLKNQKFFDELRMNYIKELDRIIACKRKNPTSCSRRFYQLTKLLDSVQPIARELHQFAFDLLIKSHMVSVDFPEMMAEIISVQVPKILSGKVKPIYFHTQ
Assay: In Cell Western AR degradation assay in LNCaP cells
Type: cell-based
Conditions: 18 hrs, greater than 50% degradation at 10 μM (method says 20 μM)
Summary of the method: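 After 48 h plating in RPMI with 8% CFS, LNCaP cells were exposed to 20 μM test compound for 18 h, fixed with 3.7% formaldehyde and permeabilized. AR was detected with anti-AR N20 antibody and an infrared secondary, imaged by LI-COR Odyssey and normalized to DRAQ5 DNA stain.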

Row | Compound | B9 = AR degradation in LNCaP cells (In-Cell Western)
1 | O=C1CCCC2=C1C(c1ccc([N+](=O)[O-])cc1)c1c(ccc3ccccc13)N2 (stereo not drawn) [Compound A1, 12-(4-nitrophenyl)-8,9,10,12-tetrahydrobenzo[a]acridin-11(7H)-one] | Degrader (Compounds that degrade AR (greater than 50% degradation at 10 μM) are indicated)
2 | CC1CC(=O)C2=C(C1)Nc1ccc3ccccc3c1C2c1ccc(F)cc1 (stereo not drawn) [Compound A4] | Degrader (Compounds that degrade AR (greater than 50% degradation at 10 μM) are indicated)
3 | O=C1CCCC2=C1Nc1ccc3ccccc3c1C2c1ccc([N+](=O)[O-])cc1 (stereo not drawn) [Compound A10] | Degrader (Compounds that degrade AR (greater than 50% degradation at 10 μM) are indicated)
